Read-outs that look alike come from different tables or passages of the source.
Key:
[1] = molecular target: T1, GST-tagged human ROCK2 catalytic domain 1-553 (Homo sapiens, UniProt O75116); assay: Isolated Enzyme Assay, ROCK2 (LANCE Ultra ULight-CREBtide FRET); format: biochemical; conditions: isolated enzyme assay; 30 μM highest concentration tested; read-out: Results from Isolated Enzyme Assay IC50 (μM) ROCK2
T1 construct: GST-tagged human ROCK2 catalytic domain 1-553 from Carna Biosciences (Cat #01-110); purchased Carna Biosciences 01-110; host or cells: baculovirus expression system
T1 sequence (O75116 1-553): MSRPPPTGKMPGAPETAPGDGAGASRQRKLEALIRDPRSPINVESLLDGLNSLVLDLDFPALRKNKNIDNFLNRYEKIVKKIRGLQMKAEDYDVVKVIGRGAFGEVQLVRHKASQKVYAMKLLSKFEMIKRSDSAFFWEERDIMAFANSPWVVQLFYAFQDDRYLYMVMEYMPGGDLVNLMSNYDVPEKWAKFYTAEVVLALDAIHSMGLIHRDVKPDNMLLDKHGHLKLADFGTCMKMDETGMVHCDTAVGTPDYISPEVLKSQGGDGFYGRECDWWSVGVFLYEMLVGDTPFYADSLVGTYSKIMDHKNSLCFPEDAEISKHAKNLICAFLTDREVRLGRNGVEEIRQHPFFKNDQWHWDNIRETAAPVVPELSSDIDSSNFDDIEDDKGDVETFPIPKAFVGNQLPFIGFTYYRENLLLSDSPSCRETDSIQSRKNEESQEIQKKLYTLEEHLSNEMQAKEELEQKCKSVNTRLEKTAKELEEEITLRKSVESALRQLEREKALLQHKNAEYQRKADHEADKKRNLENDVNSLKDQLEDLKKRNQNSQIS
Outline: (§1)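 Baculovirus-expressed constitutively active ROCK1 or ROCK2 (2 nM) incubated 90 min at room temperature with 50 nM ULight-CREBtide and compound (0.5% DMSO) in Tris pH 7.5, MgCl2, EGTA, Tween-20, DTT. EDTA-stopped; phospho-substrate detected by Eu-anti-phospho-CREB TR-FRET after 60 min; IC50 by non-linear regression.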

ROCK2 = molecular target: T2, ROCK2 (Homo sapiens, UniProt O75116); assay: Cell-Based Assay, ROCK2 (HAP1 knockout cells, phospho-MYPT1 Thr853 ELISA); conditions: class symbols, read-out: Results from Cell-Based Assay IC50 (μM) ROCK2
T2 construct: endogenous in cells; host or cells: HAP1 knockout cells
T2 sequence (O75116 whole entry): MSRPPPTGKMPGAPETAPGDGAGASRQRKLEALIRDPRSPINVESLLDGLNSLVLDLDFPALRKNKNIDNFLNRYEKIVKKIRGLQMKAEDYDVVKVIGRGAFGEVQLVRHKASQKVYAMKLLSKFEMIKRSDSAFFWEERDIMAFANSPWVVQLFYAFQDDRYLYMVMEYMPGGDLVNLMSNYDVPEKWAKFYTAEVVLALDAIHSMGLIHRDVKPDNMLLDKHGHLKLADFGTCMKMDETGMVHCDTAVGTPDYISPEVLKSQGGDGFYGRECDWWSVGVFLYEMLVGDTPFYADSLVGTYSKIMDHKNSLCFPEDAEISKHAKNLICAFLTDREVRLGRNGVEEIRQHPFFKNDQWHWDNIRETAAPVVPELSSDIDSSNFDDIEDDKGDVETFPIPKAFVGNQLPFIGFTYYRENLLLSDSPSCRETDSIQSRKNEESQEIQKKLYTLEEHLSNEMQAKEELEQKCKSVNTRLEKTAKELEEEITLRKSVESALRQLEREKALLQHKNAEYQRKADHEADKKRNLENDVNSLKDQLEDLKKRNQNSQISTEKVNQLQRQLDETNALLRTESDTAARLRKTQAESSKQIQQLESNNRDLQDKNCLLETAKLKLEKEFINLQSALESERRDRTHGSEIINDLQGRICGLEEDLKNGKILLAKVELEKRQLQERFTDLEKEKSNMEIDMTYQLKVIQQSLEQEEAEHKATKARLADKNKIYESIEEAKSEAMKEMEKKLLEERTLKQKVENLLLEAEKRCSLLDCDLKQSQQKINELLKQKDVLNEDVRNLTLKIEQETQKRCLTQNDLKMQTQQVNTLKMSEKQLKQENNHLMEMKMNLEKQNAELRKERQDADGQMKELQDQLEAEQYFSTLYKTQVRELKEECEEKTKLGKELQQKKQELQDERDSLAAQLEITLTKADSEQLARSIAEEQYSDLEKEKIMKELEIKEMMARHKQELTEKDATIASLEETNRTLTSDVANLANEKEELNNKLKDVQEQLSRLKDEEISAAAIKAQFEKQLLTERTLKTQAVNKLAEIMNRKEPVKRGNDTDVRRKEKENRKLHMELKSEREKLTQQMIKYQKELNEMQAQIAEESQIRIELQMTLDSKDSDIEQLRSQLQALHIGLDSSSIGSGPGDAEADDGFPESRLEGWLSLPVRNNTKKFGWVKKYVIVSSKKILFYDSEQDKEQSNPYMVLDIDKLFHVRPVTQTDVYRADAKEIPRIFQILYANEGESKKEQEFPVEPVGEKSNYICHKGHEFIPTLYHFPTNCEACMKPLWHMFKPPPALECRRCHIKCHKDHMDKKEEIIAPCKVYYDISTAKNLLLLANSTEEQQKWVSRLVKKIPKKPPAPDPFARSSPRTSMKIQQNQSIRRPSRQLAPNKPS

ROCK1 = molecular target: T3, ROCK1 (Homo sapiens, UniProt Q13464); assay: Cell-Based Assay, ROCK1 (HAP1 knockout cells, phospho-MYPT1 Thr853 ELISA); conditions: read-out: Results from Cell-Based Assay IC50 (μM) ROCK1
T3 construct: endogenous in cells; host or cells: HAP1 knockout cells
T3 sequence (Q13464 whole entry): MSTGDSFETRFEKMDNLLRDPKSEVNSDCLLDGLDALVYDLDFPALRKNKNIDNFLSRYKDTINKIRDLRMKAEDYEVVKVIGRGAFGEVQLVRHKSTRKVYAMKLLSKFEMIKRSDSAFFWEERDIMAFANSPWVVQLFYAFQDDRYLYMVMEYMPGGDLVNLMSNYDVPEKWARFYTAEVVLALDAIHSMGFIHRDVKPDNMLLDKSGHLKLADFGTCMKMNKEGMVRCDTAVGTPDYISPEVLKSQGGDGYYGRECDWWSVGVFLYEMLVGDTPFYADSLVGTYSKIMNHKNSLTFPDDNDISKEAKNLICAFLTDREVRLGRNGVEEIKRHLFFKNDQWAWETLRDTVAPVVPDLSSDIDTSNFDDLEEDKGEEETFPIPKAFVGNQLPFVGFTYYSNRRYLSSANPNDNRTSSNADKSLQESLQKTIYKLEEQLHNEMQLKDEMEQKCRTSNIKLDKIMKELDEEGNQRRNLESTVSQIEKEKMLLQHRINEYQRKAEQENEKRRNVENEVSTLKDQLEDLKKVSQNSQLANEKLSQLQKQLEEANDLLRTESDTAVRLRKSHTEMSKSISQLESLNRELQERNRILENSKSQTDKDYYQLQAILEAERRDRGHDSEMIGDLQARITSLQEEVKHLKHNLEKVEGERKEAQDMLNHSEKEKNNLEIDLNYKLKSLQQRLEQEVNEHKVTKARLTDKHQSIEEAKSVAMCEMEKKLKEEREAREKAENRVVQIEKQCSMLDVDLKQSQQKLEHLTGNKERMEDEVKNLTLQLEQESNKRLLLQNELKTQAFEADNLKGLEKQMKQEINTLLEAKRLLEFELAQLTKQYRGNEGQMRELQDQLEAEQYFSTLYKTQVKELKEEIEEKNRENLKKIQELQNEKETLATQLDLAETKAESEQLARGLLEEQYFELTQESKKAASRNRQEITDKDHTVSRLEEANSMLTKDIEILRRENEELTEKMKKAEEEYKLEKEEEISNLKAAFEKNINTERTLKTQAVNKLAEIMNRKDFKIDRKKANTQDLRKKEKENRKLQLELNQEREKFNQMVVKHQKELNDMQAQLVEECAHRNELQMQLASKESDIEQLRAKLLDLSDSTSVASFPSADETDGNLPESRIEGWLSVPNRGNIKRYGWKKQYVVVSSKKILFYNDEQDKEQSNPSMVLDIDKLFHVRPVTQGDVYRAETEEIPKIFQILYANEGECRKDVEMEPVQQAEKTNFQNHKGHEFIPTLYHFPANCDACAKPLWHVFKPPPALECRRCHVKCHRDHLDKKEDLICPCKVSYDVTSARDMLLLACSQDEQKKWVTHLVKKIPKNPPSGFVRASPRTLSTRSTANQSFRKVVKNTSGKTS
Procedure: Part II—Procedure for Determining ROCK Inhibition Ability of Test Compounds Using a Cell-Base Assay
The Cell-Based Assay for determining ROCK inhibition ability of test compounds utilized a genetically modified HAP1 cell line engineered to eliminate expression of either ROCK1 or ROCK2. In the procedure, HAP1 knockout cells are grown in Iscove's Modified Dulbecco's Medium that is additionally supplemented with 10% fetal bovine and 1x antibiotic-antimycotic mixture. Cells are plated in 96 well tissue culture plates at 1×10^5 cells/well (100 μL, of cells at 1×10^6/mL). Test compounds are solubilized in DMSO and diluted into the same media used to grow the cells. A 100 μL, aliquot of each compound dilution in media is added to each well containing the HAP1 cells and incubated at 37° C. for 30 minutes. Following compound incubation, the cells are pelleted by centrifugation at 1800 rpm for 5 minutes at 4° C. Media is removed from the cell pellet and the cells lysed and de-salted. An 80 μL, aliquot of each cell lysate is added to a single well of a 96-well high binding ELISA plate which has been pre-coated with a MYPT1 capture antibody and incubated at 4° C. overnight. The following day the ELISA plate is washed 4× with 0.05% Tween-20 in PBS. After washing, an anti-phospho-MYPT1 (Thr853) antibody is added and allowed to bind for 1 hour at room temperature. The wash step is repeated, and then an anti-rabbit HRP detection antibody is added and allowed to incubate at room temperature for 1 hour. The wash step is then repeated and 100 μL/well 1-Step™ Ultra TMB substrate is added to the ELISA plate and allowed to develop for approximately 5 minutes. The reaction is stopped by addition of H2SO4. Absorbance is read at 450 OD. Data is analyzed using GraphPad Prism software to calculate the 50% inhibitory concentration of test compound (IC50).

[2] = molecular target: T4, GST-tagged human ROCK1 catalytic domain 1-477 (Homo sapiens, UniProt Q13464); assay: Isolated Enzyme Assay, ROCK1 (LANCE Ultra ULight-CREBtide FRET); format: biochemical; conditions: isolated enzyme assay; 30 μM highest concentration tested; read-out: Results from Isolated Enzyme Assay IC50 (μM) ROCK1
T4 construct: human ROCK1 catalytic domain 1-477 from Carna Biosciences (cat #01-109); purchased Carna Biosciences 01-109; host or cells: baculovirus expression system
T4 sequence (Q13464 1-477): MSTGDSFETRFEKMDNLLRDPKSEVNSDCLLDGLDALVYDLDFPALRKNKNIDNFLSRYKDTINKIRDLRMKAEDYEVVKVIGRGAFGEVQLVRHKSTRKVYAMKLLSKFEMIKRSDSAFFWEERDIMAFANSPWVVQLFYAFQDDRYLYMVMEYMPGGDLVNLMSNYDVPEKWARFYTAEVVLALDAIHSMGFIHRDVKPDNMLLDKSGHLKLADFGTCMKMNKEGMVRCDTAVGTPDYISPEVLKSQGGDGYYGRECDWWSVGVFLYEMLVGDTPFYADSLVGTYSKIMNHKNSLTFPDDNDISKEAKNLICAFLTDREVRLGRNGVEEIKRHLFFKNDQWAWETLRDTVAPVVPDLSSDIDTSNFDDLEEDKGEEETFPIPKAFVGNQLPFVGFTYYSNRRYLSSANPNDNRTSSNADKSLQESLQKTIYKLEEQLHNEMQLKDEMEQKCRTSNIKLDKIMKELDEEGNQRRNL
Outline: as §1

[3] = rat stroke model; cited from earlier work
[4] = porcine model of IL-1 beta-induced coronary stenosis; cited from earlier work

| Compound | IC50 [1] [µM] | IC50 (ROCK2) [µM] | IC50 (ROCK1; numeric bound) [µM] | IC50 [2] [µM] | IC50 (ROCK1; class symbols) [µM] | infarct size and neurologic deficit [3] | coronary stenosis [4] |
| --- | --- | --- | --- | --- | --- | --- | --- |
| O=C(NCC(F)(F)F)c1cccc(-c2nsc(Nc3ccc4[nH]ncc4c3Cl)n2)c1 [IV-81] | < 1 | < 1 | > 10 | < 1 | – | – | – |
| Cn1cnc2c(-c3nsc(Nc4ccc5[nH]ncc5c4Cl)n3)cccc21 [IV-82] | 1 to 15 | < 1 | – | < 1 | 1 to 15 | – | – |
| O=C1CCCN1c1cccc(-c2nsc(Nc3ccc4[nH]ncc4c3Cl)n2)c1 [IV-83] | < 1 | < 1 | – | < 1 | 1 to 15 | – | – |
| CC(C)N1CCN(c2cc(-c3nsc(Nc4ccc5[nH]ncc5c4Cl)n3)ccn2)C1=O [IV-90] | < 1 | < 1 | – | < 1 | 1 to 15 | – | – |
| CNC(=O)c1cccc(-c2nsc(Nc3ccc4[nH]ncc4c3Cl)n2)c1 [IV-107] | < 1 | < 1 | > 10 | < 1 | – | – | – |
| O=S(=O)(c1cccc2cnccc12)N1CCCNCC1 [fasudil] | – | – | – | – | – | reduce both the infarct size and neurologic deficit | progressively reduce coronary stenosis |

More lines, main results first:

| IC50 [1] [µM] | IC50 (ROCK2) [µM] | IC50 (ROCK1; numeric bound) [µM] | IC50 [2] [µM] | IC50 (ROCK1; class symbols) [µM] | Compound | infarct size and neurologic deficit [3] | coronary stenosis [4] |
| --- | --- | --- | --- | --- | --- | --- | --- |
| < 1 | < 1 | > 10 | < 1 | – | Cn1ccnc1C(=O)Nc1cccc(-c2nsc(Nc3ccc4[nH]ncc4c3Cl)n2)c1 [IV-73] | – | – |
| < 1 | < 1 | – | < 1 | 1 to 15 | O=C(Nc1cccc(-c2nsc(Nc3ccc4[nH]ncc4c3Cl)n2)c1)c1ccccn1 [IV-74] | – | – |
| < 1 | < 1 | > 10 | < 1 | – | O=C(Nc1cccc(-c2nsc(Nc3ccc4[nH]ncc4c3Cl)n2)c1)c1cc[nH]n1 [IV-75] | – | – |
| < 1 | < 1 | > 10 | < 1 | – | Cc1cc(C(=O)Nc2cccc(-c3nsc(Nc4ccc5[nH]ncc5c4Cl)n3)c2)n[nH]1 [IV-76] | – | – |
| < 1 | < 1 | > 10 | < 1 | – | Cn1ccc(C(=O)Nc2cccc(-c3nsc(Nc4ccc5[nH]ncc5c4Cl)n3)c2)n1 [IV-77] | – | – |
| < 1 | < 1 | > 10 | < 1 | – | Cn1cc(C(=O)Nc2cccc(-c3nsc(Nc4ccc5[nH]ncc5c4Cl)n3)c2)cn1 [IV-78] | – | – |

From US10556898B2, “Indazolyl-1,2,4-thiadiazolamines and related compounds for inhibition of Rho-associated protein kinase and the treatment of disease” (Lycera Corporation, priority 2016, dated 2020)
